Tests used:
[1] = target: IDH1 R132H (Homo sapiens, UniProt O75874, R132H); experiment: Assay for IDH1 R132H inhibitors (NADPH/aKG, resazurin detection); format: biochemical; settings: enzyme assay of Example 12; read-out: IDH1R132H IC50
Summary of the method: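 Read-out is resorufin fluorescence (Ex544/Em590) 5 min after adding a 30 μM resazurin detection mix. Before that, mutant enzyme (0.2 μg/ml in its mix) ran 50 min at room temperature with compound, 8 uM NADPH and 2 mM aKG (mix levels) in Tris pH 7.5 with NaCl, MgCl2, BSA.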

[2] = system: U87MG cells; experiment: Cellular assay for IDH1m inhibitors: inhibition of 2-HG production (LC-MS, 48 hours) in U87MG cells; format: cell-based; settings: Homo sapiens, U-87 MG, inhibition of 2-HG production, U87R132H cells; read-out: U87R132H IC50
Experimental: (§1) Cells (e.g., HT1080 or U87MG) and are grown in T125 flasks in DMEM containing 10% FBS, 1× penicillin/streptomycin and 500 ug/mL G418. They are harvested by trypsin and seeded into 96 well white bottom plates at a density of 5000 cell/well in 100 ul/well in DMEM with 10% FBS. No cells are plates in columns 1 and 12. Cells are incubated overnight at 37° C. in 5% CO2. The next day compounds are made up at 2× concentration and 100 ul are added to each cell well. The final concentration of DMSO is 0.2% and the DMSO control wells are plated in row G. The plates are then placed in the incubator for 48 hours. At 48 hours, 100 μl of media is removed from each well and analyzed by LC-MS for 2-HG concentrations. The cell plate is placed back in the incubator for another 24 hours. At 72 hours post compound addition, 10 mL/plate of Promega Cell Titer Glo reagent is thawed and mixed. The cell plate is removed from the incubator and allowed to equilibrate to room temperature. Then 100 ul of reagent is added to each well of media. The cell plate is then placed on an orbital shaker for 10 minutes and then allowed to sit at room temperature for 20 minutes. The plate is then read for luminescence with an integration time of 500 ms.
(§2) The IC50 for inhibition of 2-HG production (concentration of test compound to reduce 2HG production by 50% compared to control) in these two cell lines for various compounds of formula I is set forth in Table 4 above.

[3] = system: HT1080 cells; experiment: Cellular assay for IDH1m inhibitors: inhibition of 2-HG production (LC-MS, 48 hours) in HT1080 cells; format: cell-based; settings: Homo sapiens, HT-1080; inhibition of 2-HG production, HT1080 cells; read-out: HT1080 IC50
Experimental: as §1, §2

Chain of IDH1 R132H (O75874 whole entry R132H): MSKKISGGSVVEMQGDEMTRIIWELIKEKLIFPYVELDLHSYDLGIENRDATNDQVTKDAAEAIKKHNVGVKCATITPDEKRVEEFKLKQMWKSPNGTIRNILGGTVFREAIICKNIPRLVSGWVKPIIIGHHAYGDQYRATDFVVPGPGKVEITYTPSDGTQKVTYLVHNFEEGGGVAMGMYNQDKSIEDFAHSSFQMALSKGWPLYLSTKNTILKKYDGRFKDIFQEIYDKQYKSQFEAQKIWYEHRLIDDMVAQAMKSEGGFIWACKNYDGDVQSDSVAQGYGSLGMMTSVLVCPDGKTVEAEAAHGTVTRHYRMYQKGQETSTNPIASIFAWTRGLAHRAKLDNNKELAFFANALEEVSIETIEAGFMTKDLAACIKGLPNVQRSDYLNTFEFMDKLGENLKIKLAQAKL

Structure (SMILES)	IC50 [1]	IC50 [2]	IC50 [3]
C=Cc1ncc2c(-c3cc(C#N)c(N4CCN(C(=O)CCO)[C@H](C(C)C)C4)nc3C3CC3)cccc2n1 [Compound 650, (R)-6-cyclopropyl-2-(4-(3-hydroxypropanoyl)-3-isopropylpiperazin-1-yl)-5-(2-vinylquinazolin-5-yl)nicotinonitrile]	< 500 nM	< 500 nM	
C=Cc1cc(-c2cc(C#N)c(N3CCN(C(=O)CCOC)[C@H](C4CC4)C3)nc2C2CC2)c2ccncc2n1 [Compound 658, (R)-6-cyclopropyl-2-(3-cyclopropyl-4-(3-methoxypropanoyl)piperazin-1-yl)-5-(2-vinyl-1,7-naphthyridin-4-yl)nicotinonitrile]	< 500 nM	< 500 nM	
C=Cc1ccnc(Nc2cc(C#N)c(N3CCN(C(=O)CCO)[C@H](C(C)C)C3)nc2C2CC2)c1 [Compound 757, (R)-6-cyclopropyl-2-(4-(3-hydroxypropanoyl)-3-isopropylpiperazin-1-yl)-5-((4-vinylpyridin-2-yl)amino)nicotinonitrile]	< 500 nM	< 500 nM	
C=Cc1cc(-c2cc(C#N)c(N3CCN(C(=O)CCO)[C@H](C4CC4)C3)nc2C2CC2)c2cccnc2n1 [Compound 691]		< 500 nM	
C=Cc1ncc2c(-c3cc(C#N)c(N4CCN(C(=O)CCO)[C@H](C5CC5)C4)nc3C3CC3)cccc2n1 [Compound 651, (R)-6-cyclopropyl-2-(3-cyclopropyl-4-(3-hydroxypropanoyl)piperazin-1-yl)-5-(2-vinylquinazolin-5-yl)nicotinonitrile]	< 500 nM	< 500 nM	
C=Cc1cc(-c2cc(C#N)c(N3CCN(C(=O)CCO)[C@H](C4CC4)C3)nc2C2CC2)c2cccnc2n1 [Compound 655, (R)-6-cyclopropyl-2-(3-cyclopropyl-4-(3-hydroxypropanoyl)piperazin-1-yl)-5-(2-vinyl-1,8-naphthyridin-4-yl)nicotinonitrile]	< 500 nM		< 500 nM
C=Cc1cc(Cc2cc(C#N)c(N3CCN(C(=O)C4CC4)[C@H](C4CC4)C3)nc2C2CC2)ccn1 [Compound 684, (R)-2-(4-(cyclopropanecarbonyl)-3-cyclopropylpiperazin-1-yl)-6-cyclopropyl-5-((2-vinylpyridin-4-yl)methyl)nicotinonitrile]	< 500 nM		< 500 nM
C=Cc1cc(-c2cc(C#N)c(N3CCN(C(=O)CCOC)[C@H](C)C3)nc2C2CC2)cc(OC)n1 [Compound 622, (R)-2-cyclopropyl-2′-methoxy-6-(4-(3-methoxypropanoyl)-3-methylpiperazin-1-yl)-6′-vinyl-[3,4′-bipyridine]-5-carbonitrile]	500 to 1000 nM		1000 to 10000 nM
C=Cc1ncccc1-c1cc(C#N)c(N2CCN(C(=O)CCOC)[C@H](C)C2)nc1C1CC1 [Compound 619, (R)-2-cyclopropyl-6-(4-(3-methoxypropanoyl)-3-methylpiperazin-1-yl)-2′-vinyl-3,3′-bipyridine-5-carbonitrile]	< 500 nM		< 500 nM
N#Cc1ccnc(Nc2cc(C#N)c(N3CCN(C(=O)C[C@H]4CCO4)[C@H](C4CC4)C3)nc2C2CC2)n1 [Compound 808, 2-(5-cyano-2-cyclopropyl-6-((R)-3-cyclopropyl-4-(2-((R)-oxetan-2-yl)acetyl)piperazin-1-yl)pyridin-3-ylamino)pyrimidine-4-carbonitrile]	< 500 nM		< 500 nM
C=Cc1cc(N(C(C)=O)c2cc(C#N)c(N3CCN(C(=O)CCOC)[C@H](C)C3)nc2C2CC2)ccn1 [Compound 662, (R)—N-(5-cyano-2-cyclopropyl-6-(4-(3-methoxypropanoyl)-3-methylpiperazin-1-yl)pyridin-3-yl)-N-(2-vinylpyridin-4-yl)acetamide]	< 500 nM		< 500 nM
CC(=O)N1CCN(c2nc(C3CC3)c(-c3cccc4cnccc34)cc2C#N)C[C@H]1C [Compound 516, (R)-2-(4-acetyl-3-methylpiperazin-1-yl)-6-cyclopropyl-5-(isoquinolin-5-yl)nicotinonitrile]	< 500 nM		500 to 1000 nM
C#CC(=O)N1CCC=C(c2cc(C#N)c(N3CCN(C(=O)C4CC4)[C@H](C)C3)nc2C2CC2)C1 [Compound 594, (R)-2-(4-(cyclopropanecarbonyl)-3-methylpiperazin-1-yl)-6-cyclopropyl-5-(1-propioloyl-1,2,5,6-tetrahydropyridin-3-yl)nicotinonitrile]	< 500 nM		< 500 nM
N#Cc1cc(Nc2ccnc(Cl)c2)c(C2CC2)nc1N1CCN(C(=O)CCO)[C@H](C2CC2)C1 [Compound 677, (R)-5-((2-chloropyridin-4-yl)amino)-6-cyclopropyl-2-(3-cyclopropyl-4-(3-hydroxypropanoyl)piperazin-1-yl)nicotinonitrile]	< 500 nM		< 500 nM
N#Cc1ccc2c(-c3cc(C#N)c(N4CCN(C(=O)CC(F)(F)F)[C@H](C5CC5)C4)nc3C3CC3)cccc2n1 [Compound 535, (R)-5-(5-cyano-2-cyclopropyl-6-(3-cyclopropyl-4-(3,3,3-trifluoropropanoyl)piperazin-1-yl)pyridin-3-yl)quinoline-2-carbonitrile]	< 500 nM		< 500 nM
C=CC(=O)N1CCOC(c2cc(C#N)c(N3CCN(C(=O)C4CC4)[C@H](C)C3)nc2C2CC2)C1 (stereo partly drawn) [Compound 600, 5-(4-acryloylmorpholin-2-yl)-2-((R)-4-(cyclopropanecarbonyl)-3-methylpiperazin-1-yl)-6-cyclopropylnicotinonitrile]	500 to 1000 nM		500 to 1000 nM
C=Cc1cc(-c2cc(C#N)c(N3CCN(C(=O)C4CC4)[C@@H](C4CC4)C3)nc2C2CC2)ncn1 [Compound 578, (S)-2-(4-(cyclopropanecarbonyl)-3-cyclopropylpiperazin-1-yl)-6-cyclopropyl-5-(6-vinylpyrimidin-4-yl)nicotinonitrile]	< 500 nM		< 500 nM
C=Cc1cc(-c2c(C3CC3)nc(N3CCN(C(=O)CC4CCC4)[C@H](C4CC4)C3)c(C#N)c2C)ccn1 [Compound 819, (R)-6-(4-(2-cyclobutylacetyl)-3-cyclopropylpiperazin-1-yl)-2-cyclopropyl-4-methyl-2′-vinyl-3,4′-bipyridine-5-carbonitrile]	< 500 nM		< 500 nM
Cn1cc(-c2cc(C#N)c(N3CCN(C(=O)CC(F)(F)F)[C@H](C4CC4)C3)nc2C2CC2)c2ccccc2c1=O [Compound 536, (R)-6-cyclopropyl-2-(3-cyclopropyl-4-(3,3,3-trifluoropropanoyl)piperazin-1-yl)-5-(2-methyl-1-oxo-1,2-dihydroisoquinolin-4-yl)nicotinonitrile]	< 500 nM		< 500 nM
C=Cc1ccc2c(-c3cc(C#N)c(N4CCN(C(=O)CCO)[C@H](C5CC5)C4)nc3C3CC3)cccc2n1 [Compound 569, (R)-6-cyclopropyl-2-(3-cyclopropyl-4-(3-hydroxypropanoyl)piperazin-1-yl)-5-(2-vinylquinolin-5-yl)nicotinonitrile]	< 500 nM		< 500 nM
C=Cc1nccc(-c2cc(C#N)c(N3CCN(C(=O)C4CC4)[C@H](C4CC4)C3)nc2C2CC2)c1F [Compound 520, (R)-6-(4-(cyclopropanecarbonyl)-3-cyclopropylpiperazin-1-yl)-2-cyclopropyl-3′-fluoro-2′-vinyl-3,4′-bipyridine-5-carbonitrile]	500 to 1000 nM		< 500 nM
C=Cc1ncc(Cl)c(-c2cc(C#N)c(N3CCN(C(=O)C4CC4)[C@H](C4CC4)C3)nc2C2CC2)n1 [Compound 533, (R)-5-(5-chloro-2-vinylpyrimidin-4-yl)-2-(4-(cyclopropanecarbonyl)-3-cyclopropylpiperazin-1-yl)-6-cyclopropylnicotinonitrile]	500 to 1000 nM		1000 to 10000 nM
N#Cc1cc(-c2cccc3c(O)nccc23)c(C2CC2)nc1N1CCN(C(=O)C2CC2)[C@H](C2CC2)C1 [Compound 566, (R)-2-(4-(cyclopropanecarbonyl)-3-cyclopropylpiperazin-1-yl)-6-cyclopropyl-5-(1-hydroxyisoquinolin-5-yl)nicotinonitrile]	< 500 nM		500 to 1000 nM
C=Cc1cc(-c2cc(C#N)c(N3CCN(C(=O)CCO)C(C)C3)nc2C2CC2)ccn1 (stereo not shown) [Compound 572]	< 500 nM		< 500 nM
N#Cc1cc(-c2ccc3ncsc3c2)c(C2CC2)nc1N1CCN(C(=O)CC(F)(F)F)[C@H](C2CC2)C1 [Compound 537, (R)-5-(benzo[d]thiazol-6-yl)-6-cyclopropyl-2-(3-cyclopropyl-4-(3,3,3-trifluoropropanoyl)piperazin-1-yl)nicotinonitrile]	< 500 nM		500 to 1000 nM

Source: patent US9856279B2 (AGIOS PHARMACEUTICALS, INC, priority 2011, dated 2018)
